Laboratory results as given in patent publication US20120034613A1, “Apparatus and Method for Testing Relationships Between Gene Expression and Physical Appearance of Skin” (NSE Products, Inc., priority 2010, published 2012).

System: EpidermFT™ Skin Model (EFT-400) full thickness skin cultures
Experiment: Affymetrix GeneChip HG U133 Plus 2.0 microarray global gene expression, agent-exposed vs untreated skin cultures
Assay type: cell-based, human
Details: 0.5% vs untreated, 24 hr; down

## OCc1ccccc1O[C@@H]1O[C@H](CO)[C@@H](O)[C@H](O)[C@H]1O [Salicin, 2-(Hydroxymethyl)phenyl β-D-glucospyranoside]
  Fold change HAS3 (223541_at): 3.713
  Fold change HIP1R (209558_s_at): 3.322
  Fold change HMGCR (202539_s_at): 3.621
  Fold change HMGCR (202540_s_at): 3.753
  Fold change HMOX1 (203665_at): 3.193
  Fold change HOMER2 (217080_s_at): 3.789
  Fold change HOOK1 (219976_at): 3.54
  Fold change HS3ST6 (239547_at): 3.557
  Fold change HSD17B1 (205829_at): 3.15
  Fold change HYAL4 (220249_at): 3.117
  Fold change IL1F5 (222223_s_at): 3.177
  Fold change IL28RA (244261_at): 3.252
  Fold change IRX3 (229638_at): 3.118
  Fold change ITGAM (205786_s_at): 3.645
  Fold change JUB (225806_at): 3.698
  Fold change JUB (225807_at): 3.198
  Fold change JUB (1553764_a_at): 3.662
  Fold change KCTD11 (235857_at): 3.157
  Fold change KIAA0485 (214295_at): 3.094
  Fold change KIAA0513 (204546_at): 3.413
  Fold change KIAA0746 /// SERINC2 (212314_at): 3.628
  Fold change KIAA1239 (230765_at): 3.239
  Fold change KIAA1609 (65438_at): 3.527
  Fold change KIAA1609 (221843_s_at): 3.461
  Fold change KIF21A (226003_at): 3.77
  Fold change KIF21A (231875_at): 3.78
  Fold change KLF5 (209211_at): 3.563
  Fold change KLHL18 (1557165_s_at): 3.408
  Fold change KLK11 (205470_s_at): 3.318
  Fold change KLK13 (205783_at): 3.619
  Fold change KRT15 (204734_at): 3.6
  Fold change KRT34 (206969_at): 3.171
  Fold change LAD1 (203287_at): 3.072
  Fold change LOC283070 (226382_at): 3.685
  Fold change LOC653602 (229546_at): 3.058
  Fold change LOC728377 (228596_at): 3.786
  Fold change LOC100128178 (232090_at): 3.299
  Fold change LOC100128443 /// MAST4 (225613_at): 3.231
  Fold change LOC100128501 (229296_at): 3.452
  Fold change LOC100130885 (236213_at): 3.36
  Fold change LPCAT2 (227889_at): 3.256
  Fold change LYPLA1 (203007_x_at): 3.221
  Fold change MACC1 (232151_at): 3.738
  Fold change MACC1 (1566766_a_at): 3.181
  Fold change MBD1 (241813_at): 3.076
  Fold change ME1 (204058_at): 3.413
  Fold change ME1 (204059_s_at): 3.029
  Fold change MICALCL (243611_at): 3.335
  Fold change MICALL1 (221779_at): 3.602
  Fold change MKNK2 (223199_at): 3.427
  Fold change MLLT4 (224685_at): 3.09
  Fold change MPP7 (1564308_a_at): 3.034
  Fold change MPZL2 (203780_at): 3.468
  Fold change MPZL2 (230518_at): 3.326
  Fold change MSMB (207430 s_at): 3.689
  Fold change MTUS1 (212095_s_at): 3.034
  Fold change MTUS1 (212096_s_at): 3.773
  Fold change MYO5B (225301_s_at): 3.815
  Fold change NDRG2 (206453_s_at): 3.922
  Fold change NDRG2 (214279_s_at): 3.705
  Fold change NLRX1 (1553695_a_at): 3.887
  Fold change NOL3 (221566_s_at): 3.704
  Fold change NOL3 (221567_at): 3.416
  Fold change NT5C3 (223298_s_at): 3.641
  Fold change OMG (238720_at): 3.099
  Fold change P2RY2 (206277_at): 3.679
  Fold change P11 (206605_at): 3.785
  Fold change PANK1 (226649_at): 3.261
  Fold change PCDH7 (228640_at): 3.307
  Fold change PCSK6 (210553_x_at): 3.573
  Fold change PITX2 (207558_s_at): 3.504
  Fold change PLCXD1 (218951_s_at): 3.092
  Fold change PLLP (204519_s_at): 3.781
  Fold change PLXDC2 (227276_at): 3.44
  Fold change PLXNA2 (213030_s_at): 3.036
  Fold change PNPLA1 (1553364_at): 3.553
  Fold change PPID (228469_at): 3.327
  Fold change PPP1R13L (218849_s_at): 3.053
  Fold change PPP2R2C (223574_x_at): 3.091
  Fold change PSG4 (208191_x_at): 3.458
  Fold change PSPH (205048_s_at): 3.381
  Fold change PTGER3 (210375_at): 3.745
  Fold change PTPN3 (203997_at): 3.799
  Fold change PTPN3 (227944_at): 3.077
  Fold change RAB3D (225001_at): 3.306
  Fold change RAB7B (230266_at): 3.207
  Fold change RAET1E (1552777_a_at): 3.558
  Fold change RASAL1 (219752_at): 3.507
  Fold change RBM35A (219121_s_at): 3.786
  Fold change RDH13 (1559190_s_at): 3.726
  Fold change RHBDL2 (1554895_a_at): 3.193
  Fold change RHOD (209885_at): 3.12
  Fold change RHOU (223168_at): 3.283
  Fold change S1PR5 (230464_at): 3.789
  Fold change S100P (204351_at): 3.66
  Fold change SCD (200832_s_at): 3.77
  Fold change SCD /// SCDOS (223839_s_at): 3.34
  Fold change SCN4B (236359_at): 3.105
  Fold change SDC1 (201287_s_at): 3.32
  Fold change SEPT8 (209000_s_at): 3.657
  Fold change SERPINB3 (209719_x_at): 3.665
  Fold change SERPINB3 (209720_s_at): 3.147
  Fold change SERPINB7 (206421_s_at): 3.623
  Fold change SERPINB12 (1553057_at): 3.711
  Fold change SFT2D2 (214838_at): 3.904
  Fold change SGPL1 (212322_at): 3.184
  Fold change SLC4A11 (223748_at): 3.82
  Fold change SLC5A1 (242773_at): 3.714
  Fold change SLC22A3 (205421_at): 3.516
  Fold change SLC38A1 (224579_at): 3.045
  Fold change SLC38A4 (220786 s_at): 3.844
  Fold change SMPD3 (231732_at): 3.594
  Fold change SORL1 (203509_at): 3.285
  Fold change SPRR3 (232082_x_at): 3.303
